Series [1] relates to Haemophilus influenzae. In words: Antibacterial activity against Haemophilus influenzae HIN 19-18 assessed as inhibition of bacterial growth incubated for 20 to 24 hrs by CLSI based broth microdilution method. The series is classed as functional. Particulars: HIN 19-18, time 20-24 hrs. (Broth dilution looks for growth in wells or tubes with falling amounts of substance.)
Series [2] relates to Staphylococcus epidermidis. The series is described as follows: Antibacterial activity against erythromycin-resistant Staphylococcus epidermidis 19-8 assessed as inhibition of visible bacterial growth incubated for 18 hrs by broth microdilution method. The series is classed as functional.
The nature of series [3]: Cytotoxicity against mouse AML12 cells assessed as reduction in cell viability incubated for 48 hrs by MTT assay. It counts as toxicity, cell-based.
Series [4] relates to Staphylococcus epidermidis. In words: Antibacterial activity against erythromycin-resistant Staphylococcus epidermidis 19-4 assessed as inhibition of visible bacterial growth incubated for 18 hrs by broth microdilution method. The series is classed as functional.
Series [5] deals with Staphylococcus epidermidis. The series is described as follows: Antibacterial activity against erythromycin-resistant Staphylococcus epidermidis 19-6 assessed as inhibition of visible bacterial growth incubated for 18 hrs by broth microdilution method. It counts as functional.
Series [6] concerns Staphylococcus epidermidis. In words: Antibacterial activity against erythromycin-resistant Staphylococcus epidermidis 19-9 assessed as inhibition of visible bacterial growth incubated for 18 hrs by broth microdilution method. The series is classed as functional.
Series [7] deals with Streptococcus agalactiae. The series is described as follows: Antibacterial activity against erythromycin-resistant Streptococcus agalactiae 19-9 assessed as inhibition of visible bacterial growth incubated for 18 hrs by broth microdilution method. The series is classed as functional.
Series [8] deals with Moraxella catarrhalis. The series is described as follows: Antibacterial activity against Moraxella catarrhalis BCA 19-5 assessed as inhibition of bacterial growth incubated for 24 hrs by CLSI based broth microdilution method. It counts as functional. Particulars: Moraxella catarrhalis, BCA 19-5, 24 h, read-out: MIC.
For series [9], the system named is Streptococcus pneumoniae. In words: Antibacterial activity against erythromycin-resistant Streptococcus pneumoniae SPN19-13 assessed as inhibition of visible bacterial growth incubated for 18 hrs by broth microdilution method. The series is classed as functional.
For the next series, the system named is Streptococcus pyogenes. The series is described as follows: Antibacterial activity against erythromycin-resistant Streptococcus pyogenes ATCC 19615 assessed as inhibition of visible bacterial growth incubated for 18 hrs by broth microdilution method. It counts as functional.
Series [10] relates to Haemophilus influenzae. The series is described as follows: Antibacterial activity against Haemophilus influenzae HIN 19-15 assessed as inhibition of bacterial growth incubated for 20 to 24 hrs by CLSI based broth microdilution method. It counts as functional. Particulars: time 20-24 hrs.
The subject of series [11] is Streptococcus agalactiae. The series is described as follows: Antibacterial activity against erythromycin-resistant Streptococcus agalactiae 19-8 assessed as inhibition of visible bacterial growth incubated for 18 hrs by broth microdilution method. The series is classed as functional.
For series [12], the system named is Streptococcus pneumoniae. The series is described as follows: Antibacterial activity against erythromycin-resistant Streptococcus pneumoniae SPN19-14 assessed as inhibition of visible bacterial growth incubated for 18 hrs by broth microdilution method. The series is classed as functional.
The test system of series [13] is Staphylococcus epidermidis. In words: Antibacterial activity against erythromycin-resistant Staphylococcus epidermidis 19-11 assessed as inhibition of visible bacterial growth incubated for 18 hrs by broth microdilution method. The series is classed as functional.
For series [14], the system named is Streptococcus pneumoniae. The series is described as follows: Antibacterial activity against erythromycin-resistant Streptococcus pneumoniae SPN19-8 assessed as inhibition of visible bacterial growth incubated for 18 hrs by broth microdilution method. The series is classed as functional.
In series [15] the test system is Staphylococcus epidermidis. The series is described as follows: Antibacterial activity against erythromycin-resistant Staphylococcus epidermidis 19-5 assessed as inhibition of visible bacterial growth incubated for 18 hrs by broth microdilution method. The series is classed as functional.
For series [16], the system named is Moraxella catarrhalis. The series is described as follows: Antibacterial activity against Moraxella catarrhalis BCA 19-6 assessed as inhibition of bacterial growth incubated for 24 hrs by CLSI based broth microdilution method. The series is classed as functional. Conditions: Moraxella catarrhalis, BCA 19-6, 24 h, read-out: MIC.
Series [17] relates to Moraxella catarrhalis. The series is described as follows: Antibacterial activity against Moraxella catarrhalis BCA 19-31 assessed as inhibition of bacterial growth incubated for 24 hrs by CLSI based broth microdilution method. Particulars: BCA 19-31, 24 h. The series is classed as functional.

The source of these data is ChEMBL document CHEMBL5543097, “Synthesis and structure-activity relationships of novel 14-membered 2-fluoro ketolides with structural modification at the C11 position” (Eur J Med Chem, 2024).

A word on the CC50: it is the concentration giving 50% cytotoxicity.

Values after ≈ are worked out from the molar mass of the structure shown.

As to `CC[C@H]1OC(=O)[C@@](C)(F)C(=O)[C@H](C)[C@@H](O[C@@H]2O[C@H](C)C[C@H](N(C)C)[C@H]2O)[C@](C)(OC)C[C@@H](C)C(=O)[C@H](C)[C@H]2N(CCCOC(=O)Nc3ccc(SC)cc3)C(=O)O[C@]12C`, the MIC in the series with Haemophilus influenzae [1] amounted to 8 µg/mL (≈ 9.37 µM); in series [2] it was 0.125 µg/mL (≈ 0.146 µM); in series [4] it was 0.125 µg/mL (≈ 0.146 µM); in series [5], 0.125 µg/mL (≈ 0.146 µM); in [6], 0.25 µg/mL (≈ 0.293 µM); in the series on Streptococcus agalactiae [7], 16 µg/mL (≈ 18.7 µM). Further, the MIC with Moraxella catarrhalis [8] is 0.5 µg/mL (≈ 0.585 µM); with Streptococcus pneumoniae [9], 0.25 µg/mL (≈ 0.293 µM); in the series with Streptococcus pyogenes it was under 0.03 µg/mL; with Haemophilus influenzae [10] it was 16 µg/mL (≈ 18.7 µM); in the series on Streptococcus agalactiae [11], 0.03 µg/mL (≈ 0.0351 µM); with Streptococcus pneumoniae [12], 0.25 µg/mL (≈ 0.293 µM). For the same compound, the MIC was found to be 0.125 µg/mL (≈ 0.146 µM) in [13]; 1 µg/mL (≈ 1.17 µM) in the series with Streptococcus pneumoniae [14]; 0.125 µg/mL (≈ 0.146 µM) in [15]; 0.5 µg/mL (≈ 0.585 µM) with Moraxella catarrhalis [16]; 0.125 µg/mL (≈ 0.146 µM) with Moraxella catarrhalis [17]. Besides, the CC50 at 48 h in [3] came to 76.1 µM.
Consider `CC[C@H]1OC(=O)[C@@](C)(F)C(=O)[C@H](C)[C@@H](O[C@@H]2O[C@H](C)C[C@H](N(C)C)[C@H]2O)[C@](C)(OC)C[C@@H](C)C(=O)[C@H](C)[C@H]2N(CCCOC(=O)Nc3cccc(C(F)(F)F)c3)C(=O)O[C@]12C`, for which the MIC in the series with Haemophilus influenzae [1] came out at 64 µg/mL (≈ 73.1 µM); in series [2] it was 0.5 µg/mL (≈ 0.571 µM); in series [4], 0.5 µg/mL (≈ 0.571 µM); in [5], 0.5 µg/mL (≈ 0.571 µM); in series [6] it was 1 µg/mL (≈ 1.14 µM); with Streptococcus agalactiae [7], 8 µg/mL (≈ 9.13 µM). Besides, the MIC was 1 µg/mL (≈ 1.14 µM) with Moraxella catarrhalis [8]; 2 µg/mL (≈ 2.28 µM) in the series on Streptococcus pneumoniae [9]; under 0.03 µg/mL in the series on Streptococcus pyogenes; 64 µg/mL (≈ 73.1 µM) with Haemophilus influenzae [10]; under 0.03 µg/mL with Streptococcus agalactiae [11]; 2 µg/mL (≈ 2.28 µM) in the series on Streptococcus pneumoniae [12]. The MIC in series [13] turned out to be 0.25 µg/mL (≈ 0.285 µM); with Streptococcus pneumoniae [14] it was 2 µg/mL (≈ 2.28 µM); in series [15] it was 0.5 µg/mL (≈ 0.571 µM); in the series with Moraxella catarrhalis [16] it was 1 µg/mL (≈ 1.14 µM); with Moraxella catarrhalis [17], 4 µg/mL (≈ 4.57 µM). Also, the CC50 at 48 h in [3] was determined as 12.4 µM.
In the case of `CCc1ccc(NC(=O)OCCCN2C(=O)O[C@]3(C)[C@@H](CC)OC(=O)[C@@](C)(F)C(=O)[C@H](C)[C@@H](O[C@@H]4O[C@H](C)C[C@H](N(C)C)[C@H]4O)[C@](C)(OC)C[C@@H](C)C(=O)[C@H](C)[C@@H]23)cc1`, the MIC in series [2] is under 0.03 µg/mL; in series [4], under 0.03 µg/mL; in series [5], under 0.03 µg/mL; in series [6], 0.125 µg/mL (≈ 0.15 µM); with Streptococcus agalactiae [7] it was 0.5 µg/mL (≈ 0.598 µM); in the series with Streptococcus pneumoniae [9], 0.06 µg/mL (≈ 0.0718 µM). Further, the MIC with Streptococcus pyogenes is under 0.03 µg/mL; with Streptococcus agalactiae [11], under 0.03 µg/mL; in the series on Streptococcus pneumoniae [12] it was under 0.03 µg/mL; in [13] it was 0.03 µg/mL (≈ 0.0359 µM); in the series on Streptococcus pneumoniae [14], 0.125 µg/mL (≈ 0.15 µM); in series [15] it was under 0.03 µg/mL. Besides, the CC50 at 48 h in [3] turned out to be 25.6 µM.
For `CC[C@H]1OC(=O)[C@@](C)(F)C(=O)[C@H](C)[C@@H](O[C@@H]2O[C@H](C)C[C@H](N(C)C)[C@H]2O)[C@](C)(OC)C[C@@H](C)C(=O)[C@H](C)[C@H]2N(CCCOC(=O)Nc3ccc(-c4ccccc4)cc3)C(=O)O[C@]12C`, the MIC with Haemophilus influenzae [1] is 8 µg/mL (≈ 9.05 µM); in [2], 0.25 µg/mL (≈ 0.283 µM); in series [4], 0.125 µg/mL (≈ 0.141 µM); in [5] it was 1 µg/mL (≈ 1.13 µM); in [6], 0.5 µg/mL (≈ 0.566 µM); in the series with Streptococcus agalactiae [7] it was 4 µg/mL (≈ 4.52 µM). Also, the MIC in the series on Streptococcus pneumoniae [9] is 1 µg/mL (≈ 1.13 µM); in the series on Streptococcus pyogenes it was under 0.03 µg/mL; in the series with Haemophilus influenzae [10], 32 µg/mL (≈ 36.2 µM); in the series on Streptococcus agalactiae [11], under 0.03 µg/mL; in the series on Streptococcus pneumoniae [12] it was 0.125 µg/mL (≈ 0.141 µM); in series [13], 0.5 µg/mL (≈ 0.566 µM). Besides, the MIC is 1 µg/mL (≈ 1.13 µM) in the series on Streptococcus pneumoniae [14], under 0.03 µg/mL in [15], 1 µg/mL (≈ 1.13 µM) with Moraxella catarrhalis [16] and 1 µg/mL (≈ 1.13 µM) in the series on Moraxella catarrhalis [17]. For the same compound, in series [3], the CC50 at 48 h is 20.7 µM.
